Data published in paper PMC8305076, “Comprehensive Evaluation of Biological Effects of Pentathiepins on Various Human Cancer Cell Lines and Insights into Their Mode of Action” (International Journal of Molecular Sciences, 2021).
pIC50: −log10 of the molar value. Read-outs that look alike come from different tables or passages of the source.

Key:
MCF-7 [1] = assay: crystal violet proliferation assay; type: cell-based, human; conditions: normoxia, read-out: GI50 CV mean
Description: (§1) Distinct MTT cell viability and crystal violet cell proliferation assays were performed to assess the cytotoxicity of the compounds 1–6 on 14 human cancer cell lines. In the viability assay, cells with intact mitochondria and thus active dehydrogenases are competent to convert MTT to the corresponding insoluble formazan. The formazan can be photometrically detected after solubilization and allows for indirect conclusions about the viability of the cells as an IC50 value. In the crystal violet assay, cells are stained by the binding of the dye to the chromatin, thus allowing for a quantification of biomass that remains adherent after a treatment in comparison with a control after a specific time. Potency is defined as the growth inhibitory concentration 50% (GI50).
(§2) The antiproliferative effect of the pentathiepins on human cancer cell lines was analyzed by crystal violet assay based on the protocol of a previous publication. […] After dissolving in ethanol, the optical density was measured. Here, 1000 cells (250 for LCLC-103H) in 0.1 mL of medium were seeded per well of a 96 well plate and incubated at standard conditions for 24 h prior to treatment to allow for adhesion of the cells. A serial dilution of the test compounds was prepared in medium, covering final concentrations from 10.0 to 0.04 µM and 0.1 mL of the working solution added to each well in triplicate. Additionally, samples for each cell line were seeded and directly fixed after 24 h to measure the cell density at the beginning of treatment (t0). Fixation was performed by replacing medium with 0.1 mL of a solution containing 1% glutaraldehyde in Dulbecco’s buffer (0.2 g/L KCl, 0.1 g/L MgSO4·7 H2O, 1.55 g/L Na2HPO4·7 H2O, 0.2 g/L KH2HPO4, and 8 g/L NaCl in water) for 20 min. Plates were stored in 0.1 mL of Dulbecco’s buffer until further processing. After 96 h of treatment, the same fixation process was applied to the plates containing cells and test compounds. To stain the cells, 0.1 mL of an aqueous solution of crystal violet (0.02%) was added per well for 20 min, then discarded and the plates afterwards rinsed in clear water for 30 min. The dye was extracted in 50 µL of ethanol per well during 2 h of shaking. The plates were read at λ = 570 nm using a SpectraMax 384plus (Molecular Devices, Sunnyvale, CA, USA), and the proliferation of the treatment conditions was calculated in relation to a solvent control sample after subtracting the background value of the T0-plates. The GI50 (half-maximal growth inhibitory concentration) was calculated via nonlinear regression followed by interpolation of the dose–response graphs in Prism 7 (GraphPad, San Diego, CA, USA).

YAPC = assay: crystal violet proliferation assay; type: cell-based; conditions: Homo sapiens, 96 h, normoxia, read-out: GI50 CV mean
Description: as §1, §2

RT-4 = assay: crystal violet proliferation assay; type: cell-based; conditions: Homo sapiens, 96 h, normoxia, read-out: GI50 CV mean
Description: as §1, §2

PATU-8902 = assay: crystal violet proliferation assay; type: cell-based; conditions: Homo sapiens, 96 h, normoxia, read-out: GI50 CV mean
Description: as §1, §2

A2780cis = assay: crystal violet proliferation assay; type: cell-based; conditions: Homo sapiens, 96 h, normoxia, read-out: GI50 CV mean
Description: as §1, §2

Kyse-70 = assay: crystal violet proliferation assay; type: cell-based; conditions: Homo sapiens, 96 h, normoxia, read-out: GI50 CV mean
Description: as §1, §2

Siso = assay: crystal violet proliferation assay; type: cell-based; conditions: Homo sapiens, 96 h, normoxia, read-out: GI50 CV mean
Description: as §1, §2

LCLC-103H = assay: crystal violet proliferation assay; type: cell-based; conditions: Homo sapiens, 96 h, normoxia, read-out: GI50 CV mean
Description: as §1, §2

A2780 = assay: crystal violet proliferation assay; type: cell-based; conditions: Homo sapiens, 96 h, normoxia, read-out: GI50 CV mean
Description: as §1, §2

RT-112 = assay: crystal violet proliferation assay; type: cell-based; conditions: Homo sapiens, 96 h, normoxia, read-out: GI50 CV mean
Description: as §1, §2

A-427 = assay: crystal violet proliferation assay; type: cell-based; conditions: Homo sapiens, 96 h, normoxia, read-out: GI50 CV mean
Description: as §1, §2

HAP-1 = assay: crystal violet proliferation assay; type: cell-based; conditions: Homo sapiens, HAP1, 96 h, normoxia, read-out: GI50 CV mean
Description: as §1, §2

HAP-1.KO.GPx1 = assay: crystal violet proliferation assay; type: cell-based; conditions: Homo sapiens, 96 h, normoxia, read-out: GI50 CV mean
Description: as §1, §2

DanG = assay: crystal violet proliferation assay; type: cell-based; conditions: Homo sapiens, 96 h, normoxia, read-out: GI50 CV mean
Description: as §1, §2

MCF-7 [2] = assay: MTT cell viability assay; type: cell-based, human
Description: as §1
In addition to performing the cell viability assay under normoxia (19% atmospheric oxygen), incubations were also conducted under hypoxic conditions, i.e., atmospheric oxygen levels of 1% during the treatment for 48 h. Hypoxia is a favorable condition of the tumor microenvironment that is connected with poor outcome. Therefore, the low oxygen condition mimics better the tumor environment. The biological effect of the pentathiepins under this condition provides insight into their dependency for oxygen, which has been postulated a key component in the proposed mechanism of action (Figure 3). Consistent with the proposed mechanism of action for five of the compounds, potency decreased under hypoxic conditions; in fact for 6, the half-maximal inhibitory concentration exceeded the highest tested concentration of 10 µM in four cell lines (Figure 6, Table S3). […] In contrast to the other compounds, in some cell lines, the cytotoxic effects of 1 were more pronounced under oxygen-reduced incubation conditions (Figure 6), indicating a tangential role of oxygen availability for this pentathiepin. Especially for the breast cancer cell line MCF-7, the cytotoxicity increased substantially, indicated by a decrease of the IC50 from >10.0 µM to about 1.0 µM.
The effect of the pentathiepins on the viability of the cell lines was assessed via an MTT assay, performed as previously described. Healthy and viable cells convert the yellow soluble 3-(4,5-dimethylthiazol-2-yl)-2,5-diphenyltetrazolium bromide to the insoluble purple corresponding formazan, which can be spectrophotometrically measured. For this assay, 5000 cells (1 250 for LCLC-103H) in 0.1 mL of medium were seeded per well of a 96-well plate and incubated at standard conditions for 24 h prior to treatment. A serial dilution of the test compounds was prepared in medium, covering final concentrations from 10.0 to 0.04 µM, and 0.1 mL of the working solution was added to each well in triplicate. After 48 h, 20 µL of a 2.5 mg/mL MTT in PBS solution was pipetted into each well and further incubated for 4 h at standard conditions. Thereafter, medium was replaced with 50 µL DMSO, and the plates were put on a shaker for 5 min and subsequently read at λ = 570 nm, with a SpectraMax 384plus (Molecular Devices, Sunnyvale, CA, USA). The cell viabilities of the treatment conditions were calculated in relation to a solvent control sample. The absolute IC50 was calculated via nonlinear regression followed by interpolation of the dose–response graphs in Prism 7 (GraphPad, San Diego, CA, USA). The IC90 was derived from the IC50 by using the slope factor of the dose–response graph with the tool QuickCalcs from GraphPad (GraphPad Software, San Diego, CA, USA).

[3] = Homo sapiens, MCF7, 48 h, hypoxic (1% O2), read-out: IC50 MTT-H mean
[4] = Homo sapiens, MCF7, 48 h, normoxic (19% O2), read-out: IC50 MTT-N mean

Structure (SMILES) | GI50 (MCF-7 [1]; 96 h) [nM] | GI50 (MCF-7 [1]; Homo sapiens, MCF7, 96 h) [nM] | GI50 (A2780cis) [nM] | GI50 (A2780) [nM] | pIC50 (MCF-7 [2]; 48 h, hypoxic (1% O2), read-out: IC50 MTT-H mean) | pIC50 (MCF-7 [2]; [3]) | pIC50 (MCF-7 [2]; [4]) | GI50 (YAPC) [nM] | GI50 (RT-4) [nM] | GI50 (PATU-8902) [nM] | GI50 (Kyse-70) [nM] | GI50 (Siso) [nM] | GI50 (LCLC-103H) [nM] | GI50 (RT-112) [nM] | GI50 (A-427) [nM] | GI50 (HAP-1) [nM] | GI50 (HAP-1.KO.GPx1) [nM] | GI50 (DanG) [nM]
CCOc1c2c(c3cnc4[nH]c(-c5ccc(OC)cc5)cc4n13)SSSSS2 [Compound 1, 11-Ethoxy-2-(4-methoxyphenyl)-3H-[1,2,3,4,5]pentathiepino[6′,7′:3,4]pyrrolo[1,2-a]pyrrolo[2,3-e]pyrazine] | 209 | 210 | 228 | 236 | 6.01 | ~6.00 | < 5.00 | 405 | 373 | 480 | 264 | 256 | 441 | 465 | 306 | 339 | 313 | 340
CCOc1c2c(c3ccc(C(=O)N4CCOCC4)cn13)SSSSS2 [Compound 3, (6-Ethoxy-[1,2,3,4,5]pentathiepino[6,7-a]indolizin-9-yl)(morpholino)methanone] | – | 153 | 88 | 55 | – | 5.45 | 5.77 | 350 | 193 | 257 | 142 | 166 | 128 | 246 | 142 | 64 | 68 | 382
CCOc1c2c(c3ccc(C(=O)N4CCN(C(=O)c5ccc(F)cc5)CC4)cn13)SSSSS2 [Compound 5, (6-Ethoxy-[1,2,3,4,5]pentathiepino[6,7-a]indolizin-9-yl)(4-(4-fluorobenzoyl)piperazinyl)methanone] | – | 248 | 142 | 92 | – | 5.52 | 5.79 | 411 | 358 | 340 | 181 | 369 | 232 | 384 | 320 | 120 | 144 | 398
CCOc1c2c(c3ccc(C(=O)N4CCN(S(=O)(=O)c5ccc(C)cc5)CC4)cn13)SSSSS2 [Compound 6, (6-Ethoxy-[1,2,3,4,5]pentathiepino[6,7-a]indolizin-9-yl)(4-tosylpiperazinyl)methanone] | – | 458 | 512 | 538 | – | < 5.00 | 5.40 | 1170 | 835 | 952 | 481 | 597 | 646 | 1100 | 352 | 507 | 524 | 711

More lines, in order of falling GI50 (MCF-7 [1]; Homo sapiens, MCF7, 96 h), values ahead:

GI50 (MCF-7 [1]; 96 h) [nM] | GI50 (MCF-7 [1]; Homo sapiens, MCF7, 96 h) [nM] | GI50 (A2780cis) [nM] | GI50 (A2780) [nM] | pIC50 (MCF-7 [2]; 48 h, hypoxic (1% O2), read-out: IC50 MTT-H mean) | pIC50 (MCF-7 [2]; [3]) | pIC50 (MCF-7 [2]; [4]) | Structure (SMILES) | GI50 (YAPC) [nM] | GI50 (RT-4) [nM] | GI50 (PATU-8902) [nM] | GI50 (Kyse-70) [nM] | GI50 (Siso) [nM] | GI50 (LCLC-103H) [nM] | GI50 (RT-112) [nM] | GI50 (A-427) [nM] | GI50 (HAP-1) [nM] | GI50 (HAP-1.KO.GPx1) [nM] | GI50 (DanG) [nM]
– | 384 | 234 | 164 | – | < 5.00 | 5.52 | CCOc1c2c(c3ccc(C(=O)N4CCCCC4)cn13)SSSSS2 [Compound 2, (6-Ethoxy-[1,2,3,4,5]pentathiepino[6,7-a]indolizin-9-yl)(piperidinyl)methanone] | 628 | 1520 | 659 | 409 | 423 | 552 | 559 | 401 | 161 | 173 | 644
– | 293 | 173 | 106 | – | 5.45 | 5.49 | CCOc1c2c(c3ccc(C(=O)N(CC)CC)cn13)SSSSS2 [Compound 4, 6-Ethoxy-N,N’-diethyl-[1,2,3,4,5]pentathiepino[6,7-a]indolizine-9-carboxamide] | 608 | 445 | 471 | 284 | 381 | 306 | 469 | 310 | 84 | 116 | 459
